Results as given in patent US11154589B2, “Antimicrobial composition combinations comprising star shaped peptide polymers” (The University of Melbourne, priority 2016, dated 2021).
In brackets after ≈: the same amount, converted by molar mass. Where two headings read alike, the source gives them in different places. Marks after values point to notes of the source that are not given here.

Key:
[1] = test system: Acinetobacter baumannii (A. baumannii, ATCC 19606); assay: MBC determination (in vitro antimicrobial experiment, CFU counting); assay type: cell-based; settings: compound alone, A. baumannii (wild-type)
Method: (§1) Freeze-dried cultures of Escherichia coli (E. coli, ATCC 25922), Klebsiella pneumoniae (K. pneumoniae, ATCC 13883), Pseudomonas aeruginosa (P. aeruginosa, ATCC 47085), Acinetobacter baumannii (A. baumannii, ATCC 19606), colistin and multidrug-resistant (CMDR) A. baumannii (FADDI-AB156), and CMDR P. aeruginosa (FADDI-PA067) were grown aerobically and maintained by passage at ambient temperature on horse blood agar (10% v/v defibrinated horse blood, 4.4% w/v Oxoid Blood Agar Base No. 2). Overnight cultures were made from transferring a colony (ca. half a loop) from the agar plates to culture tubes containing sterilized Luria-Bertani broth (LB, 1% w/v Bacto™ Tryptone, 1% w/v NaCl, 0.5% w/v Oxoid Yeast Extract) (20 mL). Bacterial cultures were incubated overnight at 37° C. with aeration and without agitation, with the exception of the two P. aeruginosa strains (ATCC 47085 and FADDI-PA067) which were cultured at 37° C. with aeration and agitation (150 rpm). On the next day, for E. coli, K. pneumonia, P. aeruginosa (ATCC 47085), and CMDR P. aeruginosa (FADDI-PA067), small aliquots (i.e., 0.5-3 mL) were taken from the culture tubes, further diluted with LB (20 mL), and incubated for 3-4 h at 37° C. with aeration before use. All bacterial cultures were cultured without agitation, with the exception of P. aeruginosa ATCC 47085 and FADDI-PA067 which were cultured with shaking at 150 rpm. For A. baumannii, an aliquot of 0.5 mL was taken from the overnight culture tube, further diluted with LB (200 mL), and incubated overnight at 37° C. with aeration before use.
(§2) The 96-well plate was then incubated at 37° C. for 1.5 or 3 h. For each well, microbial solution was diluted with saline (0.9% NaCl solution) using an appropriate dilution factor and placed on a LB agar plate (LB broth containing 15 g/L Oxoid Blood Agar Base No. 2). For E. coli, K. pneumoniae, and A. Baumannii (ATCC 19606 and FADDI-AB156), the agar plates were incubated overnight at room temperature, and then at 37° C. with aeration for 2 h. For P. Aeruginosa (ATCC 47085 and FADDI-PA067), the agar plates were incubated at 37° C. with aeration. The number of colony-forming units (CFU) was counted and expressed as CFU/mL. Positive controls consisting of cells without any treatment were used. […] A minimum of two independent experiments (biological replicates) of the assay were conducted and three technical replicates were used in each experiment. Data is expressed as mean±standard deviation (SD) and analysed using student's t-test.

[2] = test system: Escherichia coli (E. coli, ATCC 25922); assay: as above; assay type: cell-based
Method: as §1, §2

[3] = test system: Klebsiella pneumoniae (K. pneumoniae, ATCC 13883); assay: as above; assay type: cell-based
Method: as §1, §2

[4] = test system: Pseudomonas aeruginosa (P. aeruginosa, ATCC 47085); assay: as above; assay type: cell-based; settings: compound alone, P. aeruginosa (wild-type)
Method: as §1, §2

[5] = test system: CMDR P. aeruginosa (FADDI-PA067); assay: as above; assay type: cell-based, Pseudomonas aeruginosa; settings: compound alone
Method: as §1, §2

[6] = test system: CMDR A. baumannii (FADDI-AB156); assay: as above; assay type: cell-based, Acinetobacter baumannii; settings: compound alone
Method: as §1, §2

[7] = test system: Acinetobacter baumannii (A. baumannii, ATCC 19606); assay: S16-antibiotic co-administration, synergy by Bliss Independence and HSA models; assay type: cell-based; settings: for Interaction with S16 as evaluated by the Bliss Independence and HSA models (in words) / Antimicrobial activity on co-administration with S16 compared to compounds alone (log change in CFU/mL): A. baumannii wild-type; for Interaction with S16 as evaluated by the Bliss Independence and HSA models (in words): 3 h time point; for Antimicrobial activity on co-administration with S16 compared to compounds alone (log change in CFU/mL): all compounds at MBC50, t=3 h; for MBC in combination / Synergistic? (Yes/No) Bliss* / Synergistic? (Yes/No) HAS*: A. baumannii, 3 h; for MBC in combination: S16 and antibiotic co-administered, each at MBC50; for Synergistic? (Yes/No) Bliss* / Synergistic? (Yes/No) HAS*: antibiotic in combination with S16; for Synergistic? (Yes/No) Bliss*: Bliss Independence model; for Synergistic? (Yes/No) HAS*: Highest Single Agent model
Method: as §2
(§3) The Bliss Independence and HSA models were used to calculate drug synergism. […] Biotechnol. 31, 160-165 (2013). With the Bliss Independence model, synergism was calculated using the formula, BICAB=A+B−AB (1), where A and B are the effects of the two drugs in isolation and BICAB is the combined effect of the two drugs as predicted by the Bliss Independence model. […] In the HSA model, if CAB is greater than the greater of A and B, CAB>max(A, B), synergy is observed. The quantitative effect of the compounds when administered alone (i.e., A and B) or in combination (i.e., CAB) was defined as the fractional reduction of the population, R=1−CFUt/CFU0, where CFUt is the CFU/mL measured after treatment, and CFU0 is the CFU/mL measured before treatment.

[8] = test system: Escherichia coli (E. coli, ATCC 25922); assay: as above; assay type: cell-based; settings: for MBC in combination: S16 and antibiotic co-administered, each at MBC50, 3 h; for Antimicrobial activity on co-administration with S16 compared to compounds alone (log change in CFU/mL): all compounds at MBC50, t=3 h; for Synergistic? (Yes/No) Bliss* / Synergistic? (Yes/No) HAS*: antibiotic in combination with S16, 3 h; for Synergistic? (Yes/No) Bliss*: Bliss Independence model; for Synergistic? (Yes/No) HAS*: Highest Single Agent model
Method: as §2, §3

[9] = test system: Klebsiella pneumoniae (K. pneumoniae, ATCC 13883); assay: as above; assay type: cell-based; settings: for MBC in combination: S16 and antibiotic co-administered, each at MBC50, 3 h; for Antimicrobial activity on co-administration with S16 compared to compounds alone (log change in CFU/mL): all compounds at MBC50, t=3 h; for Synergistic? (Yes/No) Bliss* / Synergistic? (Yes/No) HAS*: antibiotic in combination with S16, 3 h; for Synergistic? (Yes/No) Bliss*: Bliss Independence model; for Synergistic? (Yes/No) HAS*: Highest Single Agent model
Method: as §2, §3

[10] = test system: Pseudomonas aeruginosa (P. aeruginosa, ATCC 47085); assay: as above; assay type: cell-based; settings: for Antimicrobial activity on co-administration with S16 compared to compounds alone (log change in CFU/mL): all compounds at MBC50; for Fold reduction of MBC: MBCeff with S16 versus MBC alone; for MBC in combination: S16 and antibiotic co-administered, each at MBC50; for Synergistic? (Yes/No) Bliss* / Synergistic? (Yes/No) HAS*: antibiotic in combination with S16; for Synergistic? (Yes/No) Bliss*: Bliss Independence model; for Synergistic? (Yes/No) HAS*: Highest Single Agent model
Method: as §2, §3

[11] = test system: CMDR A. baumannii (FADDI-AB156); assay: as above; assay type: cell-based, Acinetobacter baumannii
Method: as §2, §3

[12] = test system: CMDR A. baumannii (FADDI-AB156); assay: Antibiogram of CMDR A. baumannii (MIC); assay type: cell-based, Acinetobacter baumannii; settings: CMDR A. baumannii (FADDI-AB156); for MIC: read-out: MIC; for Susceptibility: interpreted by CLSI resistant breakpoints
[13] = test system: CMDR P. aeruginosa (FADDI-PA067); assay: Antibiogram of CMDR P. aeruginosa; assay type: cell-based, Pseudomonas aeruginosa; settings: interpreted by CLSI resistant breakpoints

| Molecule | MBC [4] | MBC [5] | Interaction with S16 as evaluated by the Bliss Independence and HSA models (in words) [7] | Antimicrobial activity on co-administration with S16 compared to compounds alone (log change in CFU/mL) [7] | MBC in combination [7] | Synergistic? (Yes/No) Bliss* [7] | Synergistic? (Yes/No) HAS* [7] | MBC in combination [8] | Antimicrobial activity on co-administration with S16 compared to compounds alone (log change in CFU/mL) [8] | Synergistic? (Yes/No) Bliss* [8] | Synergistic? (Yes/No) HAS* [8] | MBC in combination [9] | Antimicrobial activity on co-administration with S16 compared to compounds alone (log change in CFU/mL) [9] | Synergistic? (Yes/No) Bliss* [9] | Synergistic? (Yes/No) HAS* [9] | Antimicrobial activity on co-administration with S16 compared to compounds alone (log change in CFU/mL) ([10]; P. aeruginosa wild-type, t=3 h) | MBC in combination ([10]; P. aeruginosa, 3 h) | Synergistic? (Yes/No) Bliss* ([10]; P. aeruginosa, 3 h) | Synergistic? (Yes/No) HAS* ([10]; P. aeruginosa, 3 h) | Susceptibility [12] | also measured |
| --- | --- | --- | --- | --- | --- | --- | --- | --- | --- | --- | --- | --- | --- | --- | --- | --- | --- | --- | --- | --- | --- |
| CC1(C)S[C@@H]2[C@H](NC(=O)[C@H](N)c3ccccc3)C(=O)N2[C@H]1C(=O)O [Amp, ampicillin] | >5860.0 µM | <1.4 µM | additive | significantly enhanced antimicrobial activity | 1465.4 µM | No | No | 5.7 µM | significantly enhanced antimicrobial activity | No | No | 327.6 µM | significantly enhanced antimicrobial activity | Yes | Yes | significantly enhanced antimicrobial activity | 2930.7 µM | Yes | Yes | Resistant | MBC ([1]; Acinetobacter baumannii, ATCC19606): > 2930 µM; MBC ([2]; Escherichia coli, ATCC25922, compound alone): 9.4 µM (≈ 3.28 µg/mL); MBC ([3]; Klebsiella pneumoniae, ATCC13883, compound alone): 655 µM (≈ 229 µg/mL); MBC ([4]; Pseudomonas aeruginosa, ATCC47085): > 5860 µM; MBC ([5]; Pseudomonas aeruginosa): < 1.4 µM; MBC ([6]; Acinetobacter baumannii): > 2930 µM; Interaction with S16 as evaluated by the Bliss Independence and HSA models (in words) ([8]; 3 h time point): additive; Interaction with S16 as evaluated by the Bliss Independence and HSA models (in words) ([9]; 3 h time point): synergistic; Interaction with S16 as evaluated by the Bliss Independence and HSA models (in words) ([10]; P. aeruginosa wild-type, 3 h time point): synergistic; Fold reduction of MBC ([10]; P. aeruginosa): > 16 fold; Fold reduction of MBC ([10]; P. aeruginosa, listed as ampicillin): more than 16 fold; reduction (printed in parentheses beside fold reduction of MBC) ([10]; P. aeruginosa, antibiotic co-administered with S16): 99.9%; MBC in combination, MBCeff ([10]; P. aeruginosa, co-administered S16 (at MBC50) and antibiotic, antibiotic concentration giving at least 2-log reduction in CFU/mL, 3 h): 366.3^a μM; Interaction with S16 as evaluated by the Bliss Independence and HSA models (in words) ([11]; 3 h time point): synergistic; MBC in combination ([11]; S16 and antibiotic co-administered, each at MBC50, 3 h): 2930.7 µM; Antimicrobial activity on co-administration with S16 compared to compounds alone (log change in CFU/mL) ([11]; all compounds at MBC50, t=3 h): Enhanced antimicrobial activity; Synergistic? (Yes/No) Bliss* ([11]; antibiotic in combination with S16, 3 h, Bliss Independence model): Yes; Synergistic? (Yes/No) HAS* ([11]; antibiotic in combination with S16, 3 h, Highest Single Agent model): Yes; MIC ([12]; Acinetobacter baumannii): > 2930 µM |
| gentamicin | 2.4 µM | <1.1 µM | non-synergistic | did not result in any significant change in activity | 6.0 µM | Yes | No | 2.2 µM | enhanced efficacy | Yes | Yes | 1.1 µM | enhanced efficacy | Yes | Yes | did not result in any significant change in activity | 1.2 µM | No | No | Resistant | MBC [1]: 12.1 µM; MBC ([2]; compound alone): 3.7 µM; MBC ([3]; compound alone): 2.2 µM; MBC [6]: >1104.5 µM; Antimicrobial activity on co-administration with S16 compared to compounds alone (log change in CFU/mL) ([10]; P. aeruginosa, t=1.5 h): enhancement in efficacy; Susceptibility [13]: Resistant; MIC [12]: >1104.5 µM |
